*1 amine or outer side, *2 acyl side, *3 side chain or, on linkers, in order; H or OH if unused. Where a SMILES comes first, the peptide text is derived from it. Side-chain parts run from the residue outwards. The star is where a group is joined. C18 diacid = O=C(O)CCCCCCCCCCCCCCCCC(=O)*; γGlu = O=C(O)[C@H](CCC(=O)[*:2])N[*:1]; Isovaleryl = CC(C)CC(=O)*; AEEA = NCCOCCOCC(=O)O

For assay [1], the target named is T1, Human Neuropeptide Y2 Receptor (Homo sapiens, UniProt P49146).
T1 construct: purchased CHEMICON HTS066M
T1 sequence (P49146 1-381): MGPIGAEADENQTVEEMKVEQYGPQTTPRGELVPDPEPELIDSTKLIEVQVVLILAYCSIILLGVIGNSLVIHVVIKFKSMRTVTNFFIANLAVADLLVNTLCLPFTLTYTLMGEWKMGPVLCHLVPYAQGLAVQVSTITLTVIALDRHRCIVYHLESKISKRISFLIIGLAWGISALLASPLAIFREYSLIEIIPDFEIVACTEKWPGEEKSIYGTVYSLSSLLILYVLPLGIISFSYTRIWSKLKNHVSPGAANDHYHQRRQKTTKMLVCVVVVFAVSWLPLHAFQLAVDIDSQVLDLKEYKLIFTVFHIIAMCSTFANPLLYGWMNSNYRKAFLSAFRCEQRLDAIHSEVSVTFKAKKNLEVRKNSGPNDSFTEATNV
The assay is described as follows: Radioligand binding competition assay (RLB). The following applies: Table 3; human 125I-PYY (1-36) 0.02 nM, Y2 receptor membranes; read-out: Ki. The essentials:
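Competition binding on human Y2 receptor membranes, 0.5 μg protein/well, in 50 mM HEPES, 5 mM MgCl2, 1 mM CaCl2, pH 7.4, 0.2% ovalbumin; peptides diluted from 1 mM DMSO stocks.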

For the next assay, the system named is normal NMRI mice. The assay is described as follows: Effect on acute food intake in normal NMRI mice. In kind it is in vivo. The settings on record: male NMRI mice, 10 nmol/kg subcutaneously once. The method, then: Male NMRI mice were obtained from Charles River (Charles River, Research Models & Services Germany GmbH) or from Jan Vier (Jan Vier Labs, France) at 5 weeks of age. […] Room temperature was controlled to 21° C.±1° C., with 60%+20% humidity.
Animals were transferred 5-7 days before the start of the study to a real-time food intake monitoring system, HM-2 system (MBRose, Denmark), to allow acclimatization to experimental conditions. As the animals were uniquely identified with microchips, each individual animal was identified by its microchip upon entry and exit from the food channel. Randomization of the mice for each study group (n=7-8) was based on body weight measured the day before the start of the study. A vehicle-treated (50 mM phosphate buffer pH7 with 5% Mannitol) group was included in each experiment. Six hours before the start of the night phase animals were fasted. One hour before the dark phase animals were dosed once subcutaneously (10 nmol/kg) with test peptide. […] The food intake of the treated groups was normalized (in %) to the average food intake of the group receiving vehicle (Table 7). Statistical significance was evaluated using One-way analysis of variance with Turkey's multiple comparison test. P<0.05 was considered statistically significant.

As usually defined, the Ki is the dissociation constant of the complex between target and ligand, obtained from inhibition or displacement. As for `CC(C)CC(=O)N[C@@H](C)C(=O)N1CCC[C@H]1C(=O)N[C@@H](CCC(=O)O)C(=O)N[C@@H](CCCCNC(=O)COCCOCCNC(=O)COCCOCCNC(=O)CC[C@H](NC(=O)CCCCCCCCCCCCCCCCC(=O)O)C(=O)O)C(=O)N1CCC[C@H]1C(=O)N[C@@H](CCC(=O)O)C(=O)N[C@@H](CCC(=O)O)C(=O)N[C@@H](CCC(=O)O)C(=O)N[C@@H](C)C(=O)N[C@@H](CO)C(=O)N1CCC[C@H]1C(=O)N[C@@H](C)C(=O)N[C@@H](CCC(=O)O)C(=O)N[C@@H](CC(C)C)C(=O)N[C@@H](CCC(N)=O)C(=O)N[C@@H](CCCNC(=N)N)C(=O)N[C@@H](Cc1ccc(O)cc1)C(=O)N[C@@H](Cc1ccc(O)cc1)C(=O)N[C@H](C(=O)N[C@@H](CO)C(=O)N[C@@H](CC(C)C)C(=O)N[C@@H](CCCNC(=N)N)C(=O)N[C@@H](Cc1c[nH]cn1)C(=O)N[C@@H](Cc1ccc(O)cc1)C(=O)N[C@@H](Cc1ccc(O)cc1)C(=O)N[C@@H](CC(N)=O)C(=O)N[C@@H](Cc1c[nH]c2ccccc12)C(=O)N[C@@H](CC(C)C)C(=O)N[C@H](C(=O)N[C@@H](CCCNC(=N)N)C(=O)N[C@@H](CCC(N)=O)C(=O)N[C@@H](CCCNC(=N)N)C(=O)N[C@@H](Cc1ccc(O)cc1)C(N)=O)[C@@H](C)O)C(C)C` [Compound 3, N{alpha-4}-(3-methylbutanoyl)-N{epsilon-7}-[2-(2-{2-[2-(2-{2-[(4S)-4-carboxy-4-(17-carboxyheptadecanamido)butanamido]ethoxy}ethoxy)acetamido]ethoxy}ethoxy)acetamido]-[4A,7K,9E,11E,15A,18Q,22V,28Y,30W,31L]hPYY (4-36)] (Isovaleryl-APEK([AEEA-AEEA-γGlu-C18 diacid])PEEEASPAELQRYYVSLRHYYNWLTRQRY-NH2), in assay [1], the Ki came to 3.14 nM. In addition, the “Acute Food Intake 24 h [% vehicle]” value in the assay with normal NMRI mice turned out to be 62 % vehicle. With `CC(C)CC(=O)N[C@@H](C)C(=O)N1CCC[C@H]1C(=O)N[C@@H](CCC(=O)O)C(=O)N[C@@H](CCCCNC(=O)COCCOCCNC(=O)COCCOCCNC(=O)CC[C@H](NC(=O)CCCCCCCCCCCCCCCCC(=O)O)C(=O)O)C(=O)N1CCC[C@H]1C(=O)N[C@@H](CCC(=O)O)C(=O)N[C@@H](CCC(=O)O)C(=O)N[C@@H](CC(=O)O)C(=O)N[C@@H](C)C(=O)N[C@@H](CO)C(=O)N1CCC[C@H]1C(=O)N[C@@H](CCC(=O)O)C(=O)N[C@@H](CCC(=O)O)C(=O)N[C@@H](CC(C)C)C(=O)N[C@@H](CCC(N)=O)C(=O)N[C@@H](C)C(=O)N[C@@H](Cc1ccc(O)cc1)C(=O)N[C@@H](Cc1ccc(O)cc1)C(=O)N[C@H](C(=O)N[C@@H](CO)C(=O)N[C@@H](CC(C)C)C(=O)N[C@@H](CCCNC(=N)N)C(=O)N[C@@H](Cc1c[nH]cn1)C(=O)N[C@@H](Cc1ccc(O)cc1)C(=O)N[C@@H](Cc1ccc(O)cc1)C(=O)N[C@@H](CC(N)=O)C(=O)N[C@@H](Cc1c[nH]c2ccccc12)C(=O)N[C@@H](CC(C)C)C(=O)N[C@H](C(=O)N[C@@H](CCCNC(=N)N)C(=O)N[C@@H](CCC(N)=O)C(=O)N[C@@H](CCCNC(=N)N)C(=O)N[C@@H](Cc1ccc(O)cc1)C(N)=O)[C@@H](C)O)C(C)C` [Compound 7, N{alpha-4}-(3-methylbutanoyl)-N{epsilon-7}-[2-(2-{2-[2-(2-{2-[(4S)-4-carboxy-4-(17-carboxyheptadecanamido)butanamido]ethoxy}ethoxy)acetamido]ethoxy}ethoxy)acetamido]-[4A,7K,9E,18Q,19A,22V,28Y,30W,31L]hPYY (4-36)], the Ki in assay [1] stood at 1.02 nM. In the assay on normal NMRI mice, the “Acute Food Intake 24 h [% vehicle]” value was determined as 47 % vehicle.

In the case of `CC[C@H](C)[C@H](NC(=O)[C@H](CCC(=O)O)NC(=O)[C@H](CCC(=O)O)NC(=O)[C@@H]1CCCN1C(=O)[C@H](CO)NC(=O)[C@H](C)NC(=O)[C@H](CC(=O)O)NC(=O)[C@H](CCC(=O)O)NC(=O)[C@H](CCC(=O)O)NC(=O)[C@@H]1CCCN1C(=O)[C@H](CCCCNC(=O)COCCOCCNC(=O)COCCOCCNC(=O)CC[C@H](NC(=O)CCCCCCCCCCCCCCCCC(=O)O)C(=O)O)NC(=O)[C@H](CCC(=O)O)NC(=O)[C@@H]1CCCN1C(=O)[C@H](C)NC(=O)CC(C)C)C(=O)N[C@@H](CCC(N)=O)C(=O)N[C@@H](CCCNC(=N)N)C(=O)N[C@@H](Cc1ccc(O)cc1)C(=O)N[C@@H](Cc1ccc(O)cc1)C(=O)N[C@H](C(=O)N[C@@H](CCC(=O)O)C(=O)N[C@@H](CC(C)C)C(=O)N[C@@H](CCCNC(=N)N)C(=O)N[C@@H](Cc1c[nH]cn1)C(=O)N[C@@H](Cc1ccc(O)cc1)C(=O)N[C@@H](Cc1ccc(O)cc1)C(=O)N[C@@H](CC(N)=O)C(=O)N[C@@H](Cc1c[nH]c2ccccc12)C(=O)N[C@@H](CC(C)C)C(=O)N[C@H](C(=O)N[C@@H](CCCNC(=N)N)C(=O)N[C@@H](CCC(N)=O)C(=O)N[C@@H](CCCNC(=N)N)C(=O)N[C@@H](Cc1ccc(O)cc1)C(N)=O)[C@@H](C)O)C(C)C` [Compound 9, N{alpha-4}-(3-methylbutanoyl)-N{epsilon-7}-[2-(2-{2-[2-(2-{2-[(4S)-4-carboxy-4-(17-carboxyheptadecanamido)butanamido]ethoxy}ethoxy)acetamido]ethoxy}ethoxy)acetamido]-[4A,7K,9E,17I,18Q,22V,23E,28Y,30W,31L]hPYY (4-36)], in assay [1], the inhibition constant (Ki) was 1.22 nM. Also, in the assay on normal NMRI mice, the “Acute Food Intake 24 h [% vehicle]” value is recorded as 44 % vehicle.

Take `CC(C)CC(=O)N[C@@H](C)C(=O)N1CCC[C@H]1C(=O)N[C@@H](CCC(=O)O)C(=O)N[C@@H](CCCCNC(=O)COCCOCCNC(=O)COCCOCCNC(=O)CC[C@H](NC(=O)CCCCCCCCCCCCCCCCC(=O)O)C(=O)O)C(=O)N1CCC[C@H]1C(=O)N[C@@H](CCC(=O)O)C(=O)N[C@@H](CCC(=O)O)C(=O)N[C@@H](CC(=O)O)C(=O)N[C@@H](C)C(=O)N[C@@H](CO)C(=O)N1CCC[C@H]1C(=O)N[C@@H](CCC(=O)O)C(=O)N[C@@H](CCC(=O)O)C(=O)N[C@@H](CC(C)C)C(=O)N[C@@H](CCC(N)=O)C(=O)N[C@@H](CCC(N)=O)C(=O)N[C@@H](Cc1ccc(O)cc1)C(=O)N[C@@H](CCC(=O)O)C(=O)N[C@H](C(=O)N[C@@H](CO)C(=O)N[C@@H](CC(C)C)C(=O)N[C@@H](CCCNC(=N)N)C(=O)N[C@@H](Cc1c[nH]cn1)C(=O)N[C@@H](Cc1ccc(O)cc1)C(=O)N[C@@H](Cc1ccc(O)cc1)C(=O)N[C@@H](CC(N)=O)C(=O)N[C@@H](Cc1c[nH]c2ccccc12)C(=O)N[C@@H](CC(C)C)C(=O)N[C@H](C(=O)N[C@@H](CCCNC(=N)N)C(=O)N[C@@H](CCC(N)=O)C(=O)N[C@@H](CCCNC(=N)N)C(=O)N[C@@H](Cc1ccc(O)cc1)C(N)=O)[C@@H](C)O)C(C)C` [Compound 167, N{alpha-4}-(3-methylbutanoyl)-N{epsilon-7}-[2-(2-{2-[2-(2-{2-[(4S)-4-carboxy-4-(17-carboxyheptadecanamido)butanamido]ethoxy}ethoxy)acetamido]ethoxy}ethoxy)acetamido]-[4A,7K,9E,18Q,19Q,21E,22V,28Y,30W,31L]hPYY (4-36)] (Isovaleryl-APEK([AEEA-AEEA-γGlu-C18 diacid])PEEDASPEELQQYEVSLRHYYNWLTRQRY-NH2): the “Acute Food Intake 24 h [% vehicle]” value in the assay with normal NMRI mice is given as 73 % vehicle.

The record behind these values is patent US12559529B2, “NPY2 receptor agonists” (Boehringer Ingelheim International GmbH, priority 2019, dated 2026).
